IC50 data for four compounds are collected here from ChEMBL document CHEMBL1159160, “L-162,389: a potent orally active angiotensin II receptor antagonist with balanced affinity to both AT1 and AT2 receptor subtypes” (Bioorg Med Chem Lett, 1996).

Each structure is given as a SMILES string.

For experiment [1], the target named is T1, Type-2 angiotensin II receptor (Rattus norvegicus, UniProt P35351).
T1 sequence (P35351 whole entry): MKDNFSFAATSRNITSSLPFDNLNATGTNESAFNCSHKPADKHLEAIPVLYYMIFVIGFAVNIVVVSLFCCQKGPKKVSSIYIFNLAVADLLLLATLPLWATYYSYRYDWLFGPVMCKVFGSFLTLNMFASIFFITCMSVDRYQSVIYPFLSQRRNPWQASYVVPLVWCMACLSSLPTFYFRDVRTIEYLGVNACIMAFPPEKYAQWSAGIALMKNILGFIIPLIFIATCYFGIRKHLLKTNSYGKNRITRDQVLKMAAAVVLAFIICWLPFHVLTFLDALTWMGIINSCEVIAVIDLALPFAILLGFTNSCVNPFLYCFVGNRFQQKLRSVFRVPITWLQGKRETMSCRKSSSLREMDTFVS
The experiment in a line: Compound was evaluated for inhibition of 125I[Sar1,Ile8] aII binding to rat midbrain membrane preparation Angiotensin II receptor, type 2. Format: tissue-based.

Experiment [2] has as its target T2, Type-1 angiotensin II receptor (Oryctolagus cuniculus, UniProt P34976).
T2 sequence (P34976 whole entry): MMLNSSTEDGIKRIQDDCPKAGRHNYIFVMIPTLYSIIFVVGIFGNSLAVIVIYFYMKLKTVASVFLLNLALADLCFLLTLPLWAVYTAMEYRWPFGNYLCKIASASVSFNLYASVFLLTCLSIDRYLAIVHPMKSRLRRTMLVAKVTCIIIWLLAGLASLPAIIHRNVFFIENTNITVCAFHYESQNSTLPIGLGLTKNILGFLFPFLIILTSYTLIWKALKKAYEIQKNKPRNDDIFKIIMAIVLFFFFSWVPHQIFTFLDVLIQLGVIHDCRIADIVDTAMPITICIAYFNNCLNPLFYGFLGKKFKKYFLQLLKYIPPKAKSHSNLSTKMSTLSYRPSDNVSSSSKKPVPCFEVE
The experiment in a line: Compound was evaluated for inhibition of 125I[Sar1,Ile8] all binding to rabbit aorta Angiotensin II receptor, type 1. Format: tissue-based.

Consider `CCCCOC(=O)NS(=O)(=O)c1ccc(C)cc1-c1ccc(Cn2c(CC)nc3c(C)cc(C)nc32)cc1`, for which the figures for the IC50 in experiment [1] and in experiment [2] were 87 nM and 0.2 nM, respectively.

In the case of `CCCCOC(=O)NS(=O)(=O)c1ccc(CCC)cc1-c1ccc(Cn2c(CC)nc3c(C)cc(C)nc32)cc1`, the figures for the IC50 in experiment [1] and in experiment [2] were 3.8 nM and 2.1 nM, respectively.

As for `CCCCOC(=O)NS(=O)(=O)c1ccccc1-c1ccc(Cn2c(CC)nc3c(C)cc(C)nc32)cc1`, the values for the IC50 in experiment [1] and in experiment [2] were 95 nM and 0.2 nM, respectively.

As to `CCCCOC(=O)NS(=O)(=O)c1ccc(CC)cc1-c1ccc(Cn2c(CC)nc3c(C)cc(C)nc32)cc1`, the values for the half-inhibitory concentration (IC50) in experiment [1] and in experiment [2] were 37 nM and 1.4 nM, respectively.

Broadly, the IC50 is the point on the concentration scale where inhibition reaches its midpoint.
